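Each compound was tested at five concentrations against cells in 96-well plates for 48 hours. TGI denotes the concentration required for complete inhibition of growth.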
Key:
Test in all cases: inhibition of tumour cell growth, NCI panel, 48 h
786-0 renal = tested on: 786-0 renal
A549 NSCLC = tested on: A549 NSCLC
ACHN renal = tested on: ACHN renal
CAKI-1 renal = tested on: CAKI-1 renal
CCRF-CEM leukemia = tested on: CCRF-CEM leukemia
COLO 205 colon = tested on: COLO 205 colon
DLD-1 colon = tested on: DLD-1 colon
DMS 114 small cell lung = tested on: DMS 114 small cell lung
EKVX NSCLC = tested on: EKVX NSCLC
HCT-116 colon = tested on: HCT-116 colon
HCT-15 colon = tested on: HCT-15 colon
HL-60(TB) leukemia = tested on: HL-60(TB) leukemia
HOP-18 NSCLC = tested on: HOP-18 NSCLC
HOP-62 NSCLC = tested on: HOP-62 NSCLC
HOP-92 NSCLC = tested on: HOP-92 NSCLC
HT29 colon = tested on: HT29 colon
IGROV1 ovarian = tested on: IGROV1 ovarian
K-562 leukemia = tested on: K-562 leukemia
KM12 colon = tested on: KM12 colon
LOX IMVI melanoma = tested on: LOX IMVI melanoma
LXFL 529 NSCLC = tested on: LXFL 529 NSCLC
M14 melanoma = tested on: M14 melanoma
M19-MEL melanoma = tested on: M19-MEL melanoma
MALME-3M melanoma = tested on: MALME-3M melanoma
MOLT-4 leukemia = tested on: MOLT-4 leukemia
NCI-H226 lung = tested on: NCI-H226 lung
NCI-H23 lung = tested on: NCI-H23 lung
NCI-H460 lung = tested on: NCI-H460 lung
NCI-H522 lung = tested on: NCI-H522 lung
OVCAR-3 ovarian = tested on: OVCAR-3 ovarian
OVCAR-4 ovarian = tested on: OVCAR-4 ovarian
OVCAR-5 ovarian = tested on: OVCAR-5 ovarian
OVCAR-8 ovarian = tested on: OVCAR-8 ovarian
RPMI-8226 leukemia = tested on: RPMI-8226 leukemia
RXF 393 renal = tested on: RXF 393 renal
SF-268 CNS = tested on: SF-268 CNS
SF-295 CNS = tested on: SF-295 CNS
SF-539 CNS = tested on: SF-539 CNS
SK-MEL-2 melanoma = tested on: SK-MEL-2 melanoma
SK-MEL-28 melanoma = tested on: SK-MEL-28 melanoma
SK-MEL-5 melanoma = tested on: SK-MEL-5 melanoma
SK-OV-3 ovarian = tested on: SK-OV-3 ovarian
SN12C renal = tested on: SN12C renal
SNB-75 CNS = tested on: SNB-75 CNS
SNB-78 CNS = tested on: SNB-78 CNS
SR leukemia = tested on: SR leukemia
SW-620 colon = tested on: SW-620 colon
TK-10 renal = tested on: TK-10 renal
U251 CNS = tested on: U251 CNS
UACC-62 melanoma = tested on: UACC-62 melanoma
UO-31 renal = tested on: UO-31 renal
A498 renal = tested on: A498 renal
BT-549 breast = tested on: BT-549 breast
DU-145 prostate = tested on: DU-145 prostate
HCC-2998 colon = tested on: HCC-2998 colon
HS 578T breast = tested on: HS 578T breast
MCF7 breast = tested on: MCF7 breast
MDA-MB-231 breast = tested on: MDA-MB-231 breast
MDA-MB-435 = tested on: MDA-MB-435
MDA-N = tested on: MDA-N
NCI/ADR-RES ovarian = tested on: NCI/ADR-RES ovarian
PC-3 prostate = tested on: PC-3 prostate
SNB-19 CNS = tested on: SNB-19 CNS
T-47D breast = tested on: T-47D breast
UACC-257 melanoma = tested on: UACC-257 melanoma

## O=C1C(c2ccc([N+](=O)[O-])cc2)=[N+]([O-])c2ccccc21
786-0 renal
  TGI: > 100 µM
A549 NSCLC
  TGI: > 100 µM
ACHN renal
  TGI: > 100 µM
CAKI-1 renal
  TGI: > 100 µM
CCRF-CEM leukemia
  TGI: > 100 µM
COLO 205 colon
  TGI: 30.1 µM
DLD-1 colon
  TGI: > 100 µM
DMS 114 small cell lung
  TGI: 27.1 µM
EKVX NSCLC
  TGI: > 100 µM
HCT-116 colon
  TGI: 64.3 µM
HCT-15 colon
  TGI: 54.4 µM
HL-60(TB) leukemia
  TGI: 71.9 µM
HOP-18 NSCLC
  TGI: 26.5 µM
HOP-62 NSCLC
  TGI: 82.3 µM
HOP-92 NSCLC
  TGI: 77.4 µM
HT29 colon
  TGI: > 100 µM
IGROV1 ovarian
  TGI: > 100 µM
K-562 leukemia
  TGI: > 100 µM
KM12 colon
  TGI: > 100 µM
LOX IMVI melanoma
  TGI: 60.9 µM
LXFL 529 NSCLC
  TGI: > 100 µM
M14 melanoma
  TGI: > 100 µM
M19-MEL melanoma
  TGI: 41.5 µM
MALME-3M melanoma
  TGI: > 100 µM
MOLT-4 leukemia
  TGI: > 100 µM
NCI-H226 lung
  TGI: > 100 µM
NCI-H23 lung
  TGI: 63.4 µM
NCI-H460 lung
  TGI: > 100 µM
NCI-H522 lung
  TGI: 20.3 µM
OVCAR-3 ovarian
  TGI: 55.4 µM
OVCAR-4 ovarian
  TGI: 21.7 µM
OVCAR-5 ovarian
  TGI: 47.5 µM
OVCAR-8 ovarian
  TGI: 16.4 µM
RPMI-8226 leukemia
  TGI: > 100 µM
RXF 393 renal
  TGI: 60.4 µM
SF-268 CNS
  TGI: > 100 µM
SF-295 CNS
  TGI: > 100 µM
SF-539 CNS
  TGI: > 100 µM
SK-MEL-2 melanoma
  TGI: > 100 µM
SK-MEL-28 melanoma
  TGI: 77.2 µM
SK-MEL-5 melanoma
  TGI: 31.5 µM
SK-OV-3 ovarian
  TGI: > 100 µM
SN12C renal
  TGI: 93.5 µM
SNB-75 CNS
  TGI: 69 µM
SNB-78 CNS
  TGI: 61.1 µM
SR leukemia
  TGI: 62.3 µM
SW-620 colon
  TGI: > 100 µM
TK-10 renal
  TGI: 91.9 µM
U251 CNS
  TGI: 36.3 µM
UACC-62 melanoma
  TGI: 40.5 µM
UO-31 renal
  TGI: 67 µM

## O=C(Nc1ccc(Cl)c(Cl)c1)C(=O)C(C1OC(=O)c2ccccc21)[N+](=O)[O-] (configuration not stated)
786-0 renal
  TGI: > 100 µM
A498 renal
  TGI: > 100 µM
A549 NSCLC
  TGI: > 100 µM
ACHN renal
  TGI: > 100 µM
BT-549 breast
  TGI: > 100 µM
CAKI-1 renal
  TGI: > 100 µM
CCRF-CEM leukemia
  TGI: > 100 µM
COLO 205 colon
  TGI: > 100 µM
DU-145 prostate
  TGI: > 100 µM
EKVX NSCLC
  TGI: > 100 µM
HCC-2998 colon
  TGI: > 100 µM
HCT-116 colon
  TGI: > 100 µM
HCT-15 colon
  TGI: > 100 µM
HOP-62 NSCLC
  TGI: > 100 µM
HOP-92 NSCLC
  TGI: > 100 µM
HS 578T breast
  TGI: > 100 µM
HT29 colon
  TGI: > 100 µM
IGROV1 ovarian
  TGI: > 100 µM
KM12 colon
  TGI: > 100 µM
LOX IMVI melanoma
  TGI: > 100 µM
M14 melanoma
  TGI: > 100 µM
MALME-3M melanoma
  TGI: > 100 µM
MCF7 breast
  TGI: > 100 µM
MDA-MB-231 breast
  TGI: > 100 µM
MDA-MB-435
  TGI: > 100 µM
MDA-N
  TGI: > 100 µM
MOLT-4 leukemia
  TGI: > 100 µM
NCI-H226 lung
  TGI: > 100 µM
NCI-H23 lung
  TGI: > 100 µM
NCI-H460 lung
  TGI: > 100 µM
NCI-H522 lung
  TGI: > 100 µM
NCI/ADR-RES ovarian
  TGI: > 100 µM
OVCAR-3 ovarian
  TGI: > 100 µM
OVCAR-4 ovarian
  TGI: > 100 µM
OVCAR-5 ovarian
  TGI: > 100 µM
OVCAR-8 ovarian
  TGI: > 100 µM
PC-3 prostate
  TGI: > 100 µM
RXF 393 renal
  TGI: > 100 µM
SF-268 CNS
  TGI: > 100 µM
SF-295 CNS
  TGI: > 100 µM
SF-539 CNS
  TGI: > 100 µM
SK-MEL-2 melanoma
  TGI: > 100 µM
SK-MEL-28 melanoma
  TGI: > 100 µM
SK-MEL-5 melanoma
  TGI: > 100 µM
SK-OV-3 ovarian
  TGI: > 100 µM
SN12C renal
  TGI: > 100 µM
SNB-19 CNS
  TGI: > 100 µM
SNB-75 CNS
  TGI: > 100 µM
SR leukemia
  TGI: > 100 µM
SW-620 colon
  TGI: > 100 µM
T-47D breast
  TGI: > 100 µM
TK-10 renal
  TGI: > 100 µM
U251 CNS
  TGI: > 100 µM
UACC-257 melanoma
  TGI: > 100 µM
UACC-62 melanoma
  TGI: > 100 µM
UO-31 renal
  TGI: > 100 µM

From PubChem BioAssay (NCI)
